# Laboratory results taken from paper PMC3787017, “Relative Contributions of Norepinephrine and Serotonin Transporters to Antinociceptive Synergy between Monoamine Reuptake Inhibitors and Morphine in the Rat Formalin Model” (PLoS ONE, 2013).
# Like-named read-outs stand apart in the source and are kept apart here.
# What was measured:
# [1] = Protein binding in rat plasma, equilibrium dialysis; format: in vitro ADME; settings: equilibrium dialysis 5 hours 37°C, Theravance, Inc., unpublished data
# Description: (§1) The in vitro unbound fraction of reuptake inhibitors in rat brain homogenates (5 µM) and in rat plasma protein (1 µM) was evaluated using equilibrium dialysis using the HT-Dialysis device (Gayles-Ferry, CT). Brain homogenate or plasma was spiked with test compounds and dialyzed against blank PBS for 5 hours at 37°C. The matrices from both sides of the dialysis membranes were equalized and extracted with acetonitrile. Unbound fractions for each compound were calculated as the ratio of peak areas from the PBS side to peak areas from the tissue or plasma side. Peak areas were corrected for dilution of the tissue made prior to spiking compound. Quantification was via LC/MS/MS.
# SERT [2] = target: T1, SERT (Rattus norvegicus, UniProt P31652); assay: in vivo; settings: ip, read-out: SERT occupancy ex vivo
# Description: (§2) Ex vivo occupancy studies were performed similarly to those described previously [31]. At a single time point at the conclusion of phase 2A (75 min post-dose), a 5 mm^2 piece of frontal cortex was dissected, frozen rapidly, and stored at −80°C until use. Cortical crude homogenates were prepared and the initial rates (vi(vehicle) or vi, respectively) of [^3H]-citalopram (SERT) or [^3H]-nisoxetine (NET) binding determined over a 3-min time course. The % NET or SERT transporter occupancy for compound-dosed animals was calculated using the following equation: 100*(1−vi)/average vi(vehicle).
# rat formalin model [3] = system: rat formalin model
# SERT [4] = target: T1, SERT; settings: summary over 3 and 10 mg/kg IP (discussion)
# Description: as §2
# [5] = Plasma and brain unbound concentrations by LC/MS/MS; settings: rat, 75 min post-dosing
# Description: Plasma and brain concentrations of reuptake inhibitors were determined by LC/MS/MS. Samples (10–20 µL) were injected in a Hypurity C18 column (50×2.1 mm; 3 µM) with a flow rate of 0.5 mL/min. […] Various gradient elutions were used and the mass spectrometers (Sciex API5000 and API4000; Applied Biosystems, Foster City, CA) were operated in positive ion multiple reaction monitoring mode.
# For the pharmacokinetic and bioanalytical analyses, free plasma and free brain concentrations were calculated using the in vitro unbound fractions in rat plasma and brain homogenates, respectively.
# rat formalin model [6] = assay: animal or person; settings: read-out: ED50, antinociception, drug alone
# [7] = Binding in rat brain homogenates, equilibrium dialysis; format: in vitro ADME; settings: brain homogenate, equilibrium dialysis 5 hours 37°C, Theravance, Inc., unpublished data
# Description: as §1
# SERT [8] = settings: therapeutic dose of 60 mg; cited from earlier work
# NET = NET (Rattus norvegicus, UniProt Q63380); assay: in vivo; settings: ip, read-out: NET occupancy ex vivo
# Description: as §2
# rat RotaRod test = settings: morphine 3 mg/kg SC alone, 60 min post-dose; statistically significant
# [9] = 10 mg/kg IP, drug alone, mean ± SEM
# T1 sequence (P31652 whole entry): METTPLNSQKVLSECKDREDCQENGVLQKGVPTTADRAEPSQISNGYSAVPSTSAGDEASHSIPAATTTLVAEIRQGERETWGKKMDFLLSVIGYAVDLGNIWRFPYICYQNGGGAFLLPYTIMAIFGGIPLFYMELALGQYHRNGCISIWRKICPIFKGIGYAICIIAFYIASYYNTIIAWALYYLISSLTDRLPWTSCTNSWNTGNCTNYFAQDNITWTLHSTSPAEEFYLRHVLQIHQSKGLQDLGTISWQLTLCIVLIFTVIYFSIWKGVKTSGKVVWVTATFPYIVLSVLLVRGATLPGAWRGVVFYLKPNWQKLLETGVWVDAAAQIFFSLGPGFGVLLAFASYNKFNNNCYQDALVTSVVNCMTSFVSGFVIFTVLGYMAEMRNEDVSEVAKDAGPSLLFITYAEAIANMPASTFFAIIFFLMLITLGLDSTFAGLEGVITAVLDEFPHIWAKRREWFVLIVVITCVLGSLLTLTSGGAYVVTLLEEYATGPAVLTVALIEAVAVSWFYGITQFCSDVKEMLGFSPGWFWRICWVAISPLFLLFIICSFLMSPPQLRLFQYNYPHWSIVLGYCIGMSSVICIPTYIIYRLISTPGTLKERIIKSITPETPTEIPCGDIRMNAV
# Sequence of NET (Q63380 1-617): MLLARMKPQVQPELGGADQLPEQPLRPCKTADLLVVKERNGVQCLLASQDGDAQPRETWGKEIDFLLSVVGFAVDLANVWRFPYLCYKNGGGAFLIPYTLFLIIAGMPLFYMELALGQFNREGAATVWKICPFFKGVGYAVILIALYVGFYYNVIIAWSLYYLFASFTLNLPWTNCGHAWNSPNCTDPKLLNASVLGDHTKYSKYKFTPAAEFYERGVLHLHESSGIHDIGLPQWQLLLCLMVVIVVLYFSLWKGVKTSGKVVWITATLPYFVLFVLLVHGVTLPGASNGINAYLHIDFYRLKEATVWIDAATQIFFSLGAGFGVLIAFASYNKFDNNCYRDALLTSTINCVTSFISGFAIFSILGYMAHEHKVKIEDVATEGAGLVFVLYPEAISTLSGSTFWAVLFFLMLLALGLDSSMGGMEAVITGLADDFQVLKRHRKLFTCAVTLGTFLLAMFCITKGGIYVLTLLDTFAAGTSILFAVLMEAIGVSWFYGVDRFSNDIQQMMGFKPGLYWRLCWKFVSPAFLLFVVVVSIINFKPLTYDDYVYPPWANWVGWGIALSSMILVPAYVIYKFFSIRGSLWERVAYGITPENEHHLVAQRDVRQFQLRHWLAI
smiles,measurement,setting,value
CNCC[C@@H](Oc1ccccc1C)c1ccccc1 [atomoxetine],"fraction unbound at 5 h, 1 µM",[1],0.18
same,receptor occupancy at 3 mg/kg,SERT [2],35 ± 9%
same,receptor occupancy at 10 mg/kg,SERT [2],64 ± 5%
same,inhibition of flinching,"rat formalin model [3]; 3 mg/kg IP, drug alone, mean ± SEM",4±11%
same,inhibition of flinching,rat formalin model [3]; [9],19±6%
same,SERT occupancy at doses that exhibited synergy with morphine,SERT [4],35 to 64%
same,concentration at 75 min,"[5]; in vivo, 10 mg/kg, [Brain]unbound, atomoxetine 10 mg/kg, − morphine, mean ± SD",58.2 ± 10.9 ng/g
same,concentration at 75 min,"[5]; in vivo, 10 mg/kg, [Plasma]unbound, atomoxetine 10 mg/kg, − morphine, mean ± SD",50.9 ± 5.8 ng/mL
same,concentration at 75 min,"[5]; in vivo, [Brain]unbound, atomoxetine 10 mg/kg + morphine 3 mg/kg",52.6 ± 14.4 ng/g
same,concentration at 75 min,"[5]; in vivo, [Plasma]unbound, atomoxetine 10 mg/kg + morphine 3 mg/kg",57.9 ± 12.5 ng/mL
same,ED50,rat formalin model [6],27.8 mg/kg
same,"fraction unbound at 5 h, 5 µM",[7],0.021
CNCC[C@H](Oc1cccc2ccccc12)c1cccs1 [duloxetine],"fraction unbound at 5 h, 1 µM",[1],0.031
same,occupancy of SERT by positron emission tomography,SERT [8],near-maximal occupancy
same,inhibition of flinching,"rat formalin model [3]; 5 mg/kg IP, drug alone, mean ± SEM",19±12%
same,interaction with morphine at higher doses,"rat formalin model [3]; higher doses of duloxetine, antinociceptive in the absence of morphine, data not shown",exhibited additivity with morphine
same,concentration at 75 min,"[5]; brain, intraperitoneal, 5 mg/kg, [Brain]unbound, duloxetine 5 mg/kg, − ondansetron − morphine",13 ± 1.5 ng/g
same,concentration at 75 min,"[5]; brain, intraperitoneal, [Brain]unbound, duloxetine 5 mg/kg + ondansetron 3 + morphine 1 mg/kg",16.5 ± 4.1 ng/g
same,concentration at 75 min,"[5]; plasma, intraperitoneal, 5 mg/kg, [Plasma]unbound, duloxetine 5 mg/kg, − ondansetron − morphine",4.98 ± 1.4 ng/mL
same,concentration at 75 min,"[5]; plasma, intraperitoneal, [Plasma]unbound, duloxetine 5 mg/kg + ondansetron 3 + morphine 1 mg/kg",4.55 ± 0.7 ng/mL
same,ED50,rat formalin model [6],10.9 mg/kg
same,"fraction unbound at 5 h, 5 µM",[7],0.007
CCOc1ccccc1O[C@@H](c1ccccc1)[C@@H]1CNCCO1 [esreboxetine],receptor occupancy at 10 mg/kg,SERT [2],3 ± 5%
same,inhibition of flinching,"rat formalin model [3]; rat, in vivo",17±9%
same,concentration at 75 min,"[5]; brain, intraperitoneal, 10 mg/kg, [Brain]unbound, esreboxetine 10 mg/kg, − fluoxetine − morphine",20.4 ± 14.4 ng/g
same,concentration at 75 min,"[5]; brain, intraperitoneal, [Brain]unbound, esreboxetine 10 mg/kg + fluoxetine 1 + morphine 1 mg/kg",25 ± 5.8 ng/g
same,concentration at 75 min,"[5]; brain, intraperitoneal, [Brain]unbound, esreboxetine 10 mg/kg + morphine 1 mg/kg",12.7 ± 9.9 ng/g
same,concentration at 75 min,"[5]; plasma, intraperitoneal, 10 mg/kg, [Plasma]unbound, esreboxetine 10 mg/kg, − fluoxetine − morphine",33.4 ± 12.2 ng/mL
same,concentration at 75 min,"[5]; plasma, intraperitoneal, [Plasma]unbound, esreboxetine 10 mg/kg + fluoxetine 1 + morphine 1 mg/kg",31.2 ± 8.6 ng/mL
same,concentration at 75 min,"[5]; plasma, intraperitoneal, [Plasma]unbound, esreboxetine 10 mg/kg + morphine 1 mg/kg",21 ± 17.7 ng/mL
same,receptor occupancy at 10 mg/kg,NET,82 ± 5%
CNCCC(Oc1ccc(C(F)(F)F)cc1)c1ccccc1 (stereo not shown) [fluoxetine],"fraction unbound at 5 h, 1 µM",[1],0.067
same,inhibition of flinching,rat formalin model [3]; [9],9±4%
same,"fraction unbound at 5 h, 5 µM",[7],0.0045
CN1CC[C@]23c4c5ccc(O)c4O[C@H]2[C@@H](O)C=C[C@H]3[C@H]1C5 [morphine],reduction in walking time,rat RotaRod test,65±12%
same,inhibition of flinching,"rat formalin model [3]; 1 mg/kg SC, alone, mean ± SEM",18±5%
same,inhibition of flinching (decrease in nociceptive behavior),"rat formalin model [3]; 3 mg/kg SC, alone, mean ± SEM",77%±6
same,ED50,rat formalin model [6],2.3 mg/kg
C=CCN1CC[C@]23c4c5ccc(O)c4O[C@H]2C(=O)CC[C@@]3(O)[C@H]1C5 [naloxone],effect on atomoxetine-induced antinociception,"rat formalin model [3]; naloxone 5 mg/kg IP, atomoxetine 10 and 30 mg/kg IP",failed to attenuate
same,effect on morphine-induced antinociception,"rat formalin model [3]; naloxone 5 mg/kg IP, morphine 3 mg/kg, p<0.001",effectively blocked
Cc1nccn1CC1CCc2c(c3ccccc3n2C)C1=O (stereo not shown) [ondansetron],"antinociceptive activity, alone","rat formalin model [3]; rat, in vivo",did not exhibit antinociceptive activity
same,effect on antinociceptive response to duloxetine and morphine,"rat formalin model [3]; rat, in vivo",potentiated the antinociceptive response
same,effect on antinociceptive response to fluoxetine and morphine,"rat formalin model [3]; rat, in vivo",failed to potentiate the antinociceptive response
